Three substances from publication PMC4608580, “Synthesis and Evaluation of Biological Activity of Antimicrobial – Pro-Proliferative Peptide Conjugates” (PLoS ONE, 2015) can be followed below.

Data set [1] concerns human primary dermal fibroblasts. Nature of the data set: Cell migration assay (in vitro scratch test). To be noted: 25 μg/mL, 24 h. In kind it is cell-based. On the procedure:
Biopsies of healthy human skin were obtained aseptically from three donors (47–69 years old) undergoing circumcision after obtaining their written informed consent. All the procedures were approved by the Ethics Committee of Medical University of Gdansk (NKEBN/483/2011. Issued: 2011-12-19). The samples were washed several times with sterile PBS (Sigma-Aldrich, Germany) containing antibiotic (200 U/mL penicillin and 200 μg/mL streptomycin), after which, the subcutaneous tissue was cut off with a sharp blade. The resulting sheets were cut into small fragments, washed two times with sterile PBS and treated with 6 U/mL dispase II (BD, USA) overnight at 4°C to separate epidermis and dermis. The dermis was then digested with 1.0 mg/mL collagenase type I (from Clostridium histolyticum Sigma-Aldrich, Germany) for 2 hours at 37°C to isolate fibroblasts. Cells were used between the 2nd and 4th passage in all experiments.
Fibroblasts and keratinocytes were seeded (5x10^5 cells/well) in 6-well plates. When desired monolayer confluence was reached, cells were starved for 24 hours in serum-free DMEM. The monolayer was scratched then with 200μL-pipette tip. […] The wounded areas were then photographed by means of Zeiss Observer D1 microscope equipped with camera AxioCam and analyzed with AxioVision software (Carl Zeiss, Germany). Migration activity of the cells treated with the tested peptides were expressed as the percentage of the wounded area with respect to the control probe (cell cultures without any of the peptide), assumed as 100%.
An in vitro scratch test was performed to investigate the effect of the analyzed compounds on keratinocytes and fibroblasts migration. […]
Fig 2 Effect of the peptides on HaCaT keratinocytes and fibroblasts cell migration in the in vitro scratch test. […] Migration was analyzed after 24 hours by means of Zeiss Observer D1 microscope, wounding areas were analyzed with AxioVision software and expressed as the percentage of the wound width in comparison to the control sample (cells incubated in DMEM without FCS). […]

The nature of data set [2]: Circular dichroism, alpha-helical content. To be noted: CD, mean residue ellipticity at 222 nm (Eq 1), peptide 0.4 mg/ml in 30 mM SDS, room temperature. In kind it is physicochemical. For orientation: Circular dichroism is the unequal absorption of left and right circularly polarised light.

For “IKKILSKIKKLL-NH2 [DK5, Lys-rich derivative of amphibian AMP temporin-1CEb, …-NH2, reference compound]”, the “Inhibitory effect on fibroblast migration in comparison to the control” value in data set [1] (scratch test) was about 50%. Besides, the α-helicity in data set [2] is recorded as 29%.

Take “YAGFLR-PEG-IKKILSKIKKLL-NH2 [DAL-PEG-DK5, conjugate of dalargin and DK5 joined by PEG-linker]”: the “Effect on fibroblast migration (scratch test), in words” value in data set [1] (serum-free DMEM, Mitomycin C 5 μg/mL, vs. control without peptide, three independent experiments) was “neutral or slightly stimulative”. In data set [2], this substance gave a α-helicity of 35%.

Consider “YAGFLR-PEG-IKKILSKIKKLLK-NH2 [DAL-PEG-LK6, conjugate of dalargin and LK6 joined by PEG-linker]”, for which the α-helicity in data set [2] turned out to be 25%.
